Data set [1] deals with human P450 genes expressed in 9L cells. In words: Semicarbazide trapping/fluorescence assay for 4-hydroxy metabolites in 9L/P450 cells. Type of data set: in vitro ADME. As to conditions: 2 mM, 24 h.
Procedure: Each of the indicated 9L cell lines was seeded on a 48-well plate in duplicate at 2×10^4 cells/well. […] Background fluorescence observed in 9L/Babe cells was subtracted from each sample.
Semicarbazide trapping/fluorescence assay for 4-hydroxy metabolites: 9L/P450 cells were seeded on a 48 well plate in duplicate at 2×10^4 cells/ well. […] Culture media, 400 μl, was removed and then treated with 160 μl of ice cold 5.5% (w/v) ZnSO4, 160 μl ice cold saturated Ba(OH)2, and 80 μl ice cold 0.01 M HCl. The mixture was vortexed and then centrifuged at 16,000 g for 15 minutes. 300 μl of the supernatant was transferred under dim light to a clean tube containing 540 μl of water and 160 μl of freshly prepared fluorescent reagent (60 mg 3-aminophenol and 60 mg hydroxylamine-HCl per 10 ml of 1 M HCl). The tubes were vortexed and heated at 90° C. for 20 minutes. Fluorescent readings were obtained at 350 nm (excitation), and 515 nm (emission) using 800 μl of each sample. Fluorescent values were converted to nmol 4-hydroxy metabolite/ml of original culture media based on standard curves generated using 4-hydroperoxy-CPA and then normalized to units of nmol 4-hydroxy metabolite formed per 24 hours per 10^6 cells.
The next data set deals with 9L/pBabe bystander cells. The data set can be described thus: Bystander cytotoxicity/co-culture with cell culture inserts. As to conditions: for cytotoxicity at 670 µM: Rattus norvegicus, 96 h, 9L/2B6/reductase, 0.67 mM. Type of data set: cell-based, rat. As to the method: FIGS. 18A and 18B are graphs depicting the bystander cytotoxicity of 9L/2B6/reductase and 9L/2B6 cells. In FIG. 18A, bystander cytotoxicity of 9L/2B6/reductase cells is compared to that of 9L/2B6 cells. In both cases, 9L/pBabe served as the bystander cells. 9L/pBabe cells were plated in duplicate at 10^5 cells/well of a 6-well plate (lower chamber). 9L/2B6/reductase cells or 9L/2B6 cells were plated in 25 mm cell culture inserts (upper chamber) at concentrations ranging from 10^4 to 6×10^5 cells, corresponding to ratios of 0.1 to 6 relative to the bystander 9L/pBabe cells growing in the lower chamber, as shown on the x-axis. Cells were incubated in a total volume of 3 ml Dulbecco's minimal essential medium (DMEM), 10% FBS, containing 1 mM CPA, final CPA concentration.
The experimental design was the same as in FIG. 18A, except that the final drug concentration was 0.67 mM. Data shown for both panels correspond to the survival of 9L/pBabe bystander cells in the lower chamber.
Bystander cytotoxicity/co-culture experiments: 9L/pBabe cells were plated in duplicate at 10^5 cells/well in the lower chamber of a 6-well Falcon co-culture plate (30 mm diameter wells) (Falcon 3046). 9L/2B6/reductase cells were plated in 25 mm cell culture inserts (0.4 μm pore size; Falcon 3090), at dilutions ranging from 0. 1 to 6 times the number of 9L/pBabe cells plated in the lower chamber. […] Relative cell numbers were quantitated 4 days later by crystal violet staining.

The test system of data set [2] is 9L/pBabe, 9L/2B6/reductase and 9L/2C18-Met/reductase tumors in scid mice. In words: Tumor growth delay assay in scid mice. Type of data set: in vivo, mouse. An excerpt: FIGS. 19A-19D are graphs depicting the results of a tumor growth delay assay in severe combined immunodeficiency (scid) mice bearing 9L/pBabe, 9L/2B6/reductase, and 9L/2C18-Met/reductase solid tumors. Shown are the effects of CPA treatment on growth of 9L/pBabe tumors growing on the left flank of scid mice that also bear either a 9L/2B6/reductase tumor (FIG. 19A) or a 9L/2C18-Met/reductase tumor ((FIG. 19C)) on the right flank. Also shown are the effects of CPA on growth of 9L/2B6/reductase (FIG. 19B) or 9L/2C18-Met/reductasetumors ((FIG. 19D)) in these same mice. Tumor areas were measured twice a week with Vernier calipers. The arrows above the x-axis in each panel indicate the days on which CPA was given by intraperitoneal (i.p.) injection at 150 mg/kg, as described in the "Materials and Methods" section of Example 2. Data shown is mean tumor area (mm^2)±SEM for n=4 tumors per treatment group. Mice not treated with CPA died earlier than the CPA-treated mice, as indicated by the earlier decrease in number of remaining mice from n =4 (initial number of mice/group) to n=3, 2, or 1. Open circles indicate CPA-treated mice; closed circles indicate saline controls.
Tumor Growth Delay Assay: Six week old male ICR/Fox Chase/outbred immunodeficient scid mice (Paine-Murrieta, G. D., et al., Cancer Chemother Pharmacol. 40:209-214 (1997)) (Taconic Farms, Germantown, N.Y.) weighing 26-31g were given subcutaneous tumor cell injections to form solid tumors. Tumor cells were grown in culture to approximately 75% confluency, harvested by trypsin digestion, washed in PBS, resuspended in fetal bovine serum-free DMEM at a concentration of 8×10^6 cells/ml and kept on ice. Mice were shaved on both hind flanks, and then were injected subcutaneously on the left flank with 4×10^6 9L/pBabe tumor cells, and on the right flank with 4×10^6 of either 9L/2B6/reductase or 9L/2C18-Met/reductase tumor cells (8 mice/group). Tumor cell injections were in a volume of 0.5 ml of serum-free DMEM using a 1/2 inch 27 g needle and 1 ml syringe. Tumor growth was monitored twice a week using Vernier calipers (Manostat Corp., Switzerland) to measure tumor area. On days 26 and 27 after tumor cell inoculation, 4 animals from each group (four 9L/pBabe:9L/2B6/reductase mice and four 9L/pBabe:9L/2C18-Met/reductase mice) received daily intraperitoneal injections of CPA at 150 mg/kg dissolved in 0.3 ml of 0.9% NaCl. The remaining animals received saline injections. Average tumor areas ranged from 80-145 mm^2 at the time of CPA injection. Mice were given a second course of CPA treatment (150 mg/kg×2 daily injections) beginning 24-29 days after the first CPA injection, as indicated in each experiment.

The subject of a further data set is CYP2B1. In words: Fluorometric assay of 4-hydroxy-CPA in culture medium of 9L tumor cells (Example 1). Type of data set: in vitro ADME, rat. As to conditions: 2 mM CPA, 24 h. On the procedure: FIG. 7 is a bar graph showing that higher 4-hydroxy-CPA levels are produced by P450 and RED-containing tumor cells compared to tumor cells containing P450 alone. The parental CYP2B1^+ cell lines P3 and P17, and their corresponding RED overexpressing derivatives PR11 and PR7 were plated confluent (1.5×10^6 cells per 30 mm culture dish) so that the cell number remained relatively constant during the course of the experiment. Cells were incubated for 24 hours with 2 mM CPA in the presence of 5 mM semicarbazide. Medium was collected and then assayed for 4-hydroxy-CPA using a fluorometric assay, as described below in the "Materials and Methods" section of Example 1. Limit of detection in this assay was approximately 1 μM 4-hydroxy-CPA. The higher CPA 4-hydroxylase activity of line P 17 compared to line P3 is consistent both with the higher cytotoxic potential of CPA-conditioned media from P17 cells (FIG. 5), and with the greater cytotoxicity of CPA toward the P 17 cells in vitro (FIGS. 2, 3) and in vivo (FIG. 9, below).

Entries after “also recorded” stand apart in the source; their conditions may differ. Where two headings read alike, the source gives them in different places.

With `O=P1(N(CCCl)CCCl)NCCCO1` (stereo not drawn) [CPA, cyclophosphamide], the “effect of RED transduction on drug activation in 9L parental cells” value in data set [1] is given as “did not stimulate drug activation”. In data set [1] (CYP2B6 and CYP2C18-Met cells), the “effect of RED transduction on cytotoxic metabolites accumulating in the culture medium” value is listed as “significant increase in cytotoxic metabolites”. Moreover, the “bystander killing of 9L/pBabe cells by 9L/2B6/reductase vs 9L/2B6 cells” value in the data set on 9L/pBabe bystander cells (1 mM CPA, cell ratio for 50% bystander cytotoxicity) is “approximately 3 fold”. Further, the “bystander cytotoxic effect on non-P450-expressing 9L cells” value in the data set on 9L/pBabe bystander cells (2B6 and RED-transduced tumor cells) is recorded as “strong cell contact-independent bystander cytotoxic effect; also recorded: striking bystander cytotoxic effect”. Also, the cytotoxicity at 670 µM in the data set with 9L/pBabe bystander cells (P450:non-P450 ratio approximately 0.5-1, read-out: bystander toxicity toward non-P450 tumor cells) is around 40%; in the data set on 9L/pBabe bystander cells (cell ratio >3, read-out: bystander toxicity toward non-P450 cells), at least 80%. Also, in data set [2] (150 mg/kg i.p.), the “growth delay of 2B6 and P450 reductase-transduced tumors” value is reported as above 50 days. For the same compound, the “growth inhibition of 9L/2C18-Met/reductase tumors” value in data set [2] (150 mg/kg i.p.) is reported as “significant, albeit incomplete growth inhibition”. For the same compound, the “growth delay for 9L/pBabe tumors” value in data set [2] (2B6 experiment, first cycle 150 mg/kg i.p. x2, days 26 and 27) is reported as “no growth delay”. The “growth delay effect against 9L/pBabe control tumors” value in data set [2] (2B6 experiment, second cycle) is given as “modest growth delay effect”. The “growth delay of 9L/pBabe control tumors” value in data set [2] (2C18-Met experiment) is given as 5-6 days. Further, the “growth delay in RED tumors” value in data set [2] (9L/2B6/RED and 9L/2C18-Met/RED) lay within 25 to 50 days. Besides, the host toxicity result in data set [2] (CPA-treated scid mice) is recorded as “no apparent increase in host toxicity”. Also, in data set [2] (control 9L tumors), the “growth delay without P450” value fell in the range of 5 to 6 days. Moreover, the “growth of 9L/2B6/reductase tumors” value in data set [2] (first cycle 150 mg/kg i.p. x2) is recorded as “fully blocked”. Further, the “duration of anti-tumor effect in 9L/2B6/reductase tumors” value in data set [2] (second cycle) was ≥ 75 day after tumor inoculation. In addition, the “4-hydroxylated metabolites in 9L parental cells” value in the data set on CYP2B1 is recorded as “corresponds to the limit of detection”. Besides, in the data set on CYP2B1 (5 mM semicarbazide), the “levels of 4-hydroxy-CPA formed by CYP2B1+ RED+++ vs parental CYP2B1+ cell lines” value is “up to 3 fold”.

The values are drawn from patent US6207648A, “Methods of using cytochrome P450 reductase for the enhancement of P450-based anti-cancer gene therapy” (priority 1998, dated 2001).
